These are literature values, as cited in patent US20060257434A1, “Production of emulsions of pharmaceutical compositions” (priority 2005, published 2006).

The conditions of the series: over a physiological pH range.

Regarding `CCCn1c(=O)c2[nH]c(C34CC5CC(CC3C5)C4)nc2n(CCC)c1=O` [KW-3902, 8-(3-noradamantyl)-1,3-dipropylxanthine], the solubility entry is “less than 1 μg/ml”.
